Results reported in patent US20230055657A1, “COMBINATION TREATMENT OF LIVER DISEASES USING INTEGRIN INHIBITORS” (NOVARTIS AG, priority 2019, published 2023).
“Also recorded” adds a separate entry of the source.

Legend:
CDAHFD NASH mouse model = CDAHFD NASH mouse model (prophylactic, therapeutic and 10-week studies); type: in vivo
Procedure: CDAHFD injury is a rodent model of NASH displaying liver fat accumulation, inflammation, and fibrosis (Matsumoto 2013). Three types of studies were performed: 1) prophylactic, Compound 1 in an abbreviated 3-week CDAHFD model; 2) therapeutic, Compound 1 for 6 weeks in the 11- to 12-week CDAHFD model; and 3) Compound 1 for 4 weeks in a 10-week CDAHFD model.
Compound 1 was tested therapeutically in 11- to 12-week CDAHFD injury studies at medium, high and highest doses across 3 independent studies.
Although pan-αv inhibition with CWHM12 reduced pSMAD and OHP levels, selective αvβ1 inhibition was sufficient for antifibrotic activity.

[1] = system: human cirrhotic NASH precision cut liver slices; experiment: Profibrotic gene expression and fibrosis biomarkers in precision cut liver slices; type: cell-based
Procedure: The ability of Compound 1 to inhibit the expression of profibrotic genes and decrease biomarkers of fibrosis was measured in precision cut liver slices generated using cirrhotic liver tissues from NASH patient explants and from rodent models of liver fibrosis and NASH.
Data are mean +/−standard deviation from the 5 cirrhotic NASH patients. DMSO was used as the solvent and utilized at a constant concentration (0.1%) across the different groups. […] was used as a positive control.

[2] = system: murine CCl4 model of liver fibrosis; experiment: 3-week murine CCl4 model of liver fibrosis; type: in vivo, mouse
Procedure: Antifibrotic activity of Compound 1 was established in an abbreviated, 3-week, murine CCl4 model of liver fibrosis. CCl4 is a hepatotoxin that when injected into mice results in liver fibrosis (Constandinou 2003). Compound 1 was dosed during the final week of injury.

healthy volunteers = experiment: First-in-human study of safety, tolerability, PK and PD; type: in vivo; conditions: single and multiple ascending dose, thus far
Description: Part A (Single Ascending Dose Study) Part A of the study was a first-in-human, randomized, double-blind, placebo-controlled, parallel-group, single ascending dose study of the safety, tolerability, and PK of Compound 1 in a maximum of 50 healthy male and female (non-childbearing potential) participants. Forty participants will be enrolled in up to 5 sequential cohorts.
Part B (Multiple Ascending Dose Study) Part B of the study is on-going and was initiated after the first 2 cohorts in Part A of the study had been completed. The doses in Part B were determined from Part A of the study and were not higher than the highest dose that was administered in Part A of the study.
Part B of the study is a randomized, double-blind, placebo-controlled, parallel-group, multiple ascending dose study of the PK, PD, safety, and tolerability of Compound 1 administered for 7 days in a maximum of 40 healthy male and female (non-childbearing potential) participants.

[3] = therapeutic, 11- to 12-week, high and highest doses

CC(C)(C)c1cc(Br)cc([C@H](CC(=O)O)NC(=O)CNC(=O)c2cc(O)cc(NC3=NCC(O)CN3)c2)c1 (stereo partly drawn) [CWHM12, (3S)-N-[3-hydroxy-5-[(1,4,5,6-tetrahydro-5-hydroxy-2-pyrimidinyl)amino]benzoyl]glycyl-3-[3-bromo-5-(1,1-dimethylethyl)phenyl]β-alanine, reference compound]
reduction of OHP concentrations (CDAHFD NASH mouse model; 10-week CDAHFD study): 30% | reduction of pSMAD3 levels (CDAHFD NASH mouse model; 10-week CDAHFD study): 61%

CC1(C(=O)N[C@@H](CCCCCCCc2ccc3c(n2)NCCC3)C(=O)O)CCOCC1 [Compound 1, (S)-2-(4-methyltetrahydro-2H-pyran-4-carboxamido)-9-(5,6,7,8-tetrahydro-1,8-naphthyridin-2-yl)nonanoic acid]
TIMP1 gene expression (in words) ([1]; 5 cirrhotic NASH patient explants, after two days of treatment): reduced; also recorded: decreased expression; also recorded: reduces expression | COL1A1 gene expression (in words) ([1]; fibrotic liver tissue from 5 patients with NASH): decreased expression; also recorded: reduces expression | reduction of level of FBN-C in culture media ([1]; significant): 26% | hepatic Col1α1, Col1α1, and Col3α1 expression ([2]; all doses): significant reduction; also recorded: significantly reduced | levels of pSMAD3/SMAD3 in the liver ([2]; all doses, dosed during final week of injury): significantly reduced | antifibrotic activity ([2]; liver fibrosis (CCl4)): potent and dose-dependent antifibrotic activity | antifibrotic activity (CDAHFD NASH mouse model; NASH (CDAHFD)): effective antifibrotic agent; also recorded: potent and dose-dependent antifibrotic activity | expression of Ehhadh (CDAHFD NASH mouse model; prophylactic, 3-week, high dose, both studies): significantly elevated | gene expression of collagens (CDAHFD NASH mouse model; prophylactic, 3-week, high dose, one of the studies): Significantly reduced | collagen area (histological analysis) (CDAHFD NASH mouse model; therapeutic, 11- to 12-week): significant reduction | composite fibrosis score (second harmonic generation imaging): quantity and quality of collagen fibers (CDAHFD NASH mouse model; therapeutic, 11- to 12-week): significant reduction | gene expression of Acox1 and Ehhadh (CDAHFD NASH mouse model; therapeutic, 11- to 12-week): significantly increased | collagen gene expression (Col1α1 and Col3α1) (CDAHFD NASH mouse model; [3]): significantly reduced | gene expression of profibrotic markers Ctgf, Mmp-2 and Timp1 (CDAHFD NASH mouse model; [3]): significantly reduced | tolerability (healthy volunteers): well tolerated
